For 47 molecules, IC50 results are on record in US8557816B2, “Aurora kinase modulators and method of use” (Amgen Inc., priority 2007, dated 2013).

Structures are written as SMILES.

In one assay the target is T1, AuroraB (Homo sapiens, UniProt Q96GD4).
T1 construct: 20 μL of AuroraB FL H is for a final volume of 41 μL; His
The experiment in a line: AuroraB Homogeneous Time Resolved Fluorescent (HTRF) kinase assay. The class given is biochemical. To be noted: average; read-out: AurB_IC50_IP (uM Avg). The gist of the method:
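Read-out is time-resolved FRET between europium anti-phospho-H3 antibody and streptavidin-APC, added in EDTA buffer to stop the reaction and equilibrated about 60 min (ex 320, em 615 and 655 nm). Preceding reaction: ~90 min, full-length enzyme, ATP, 0.1 μM biotin-Histone H3 substrate, Mg/Mn HEPES buffer pH 7.5.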
(In general: TR-FRET usually uses a lanthanide donor and a delayed reading to cut background.)

The target of a further assay is T2, AuroraA-TPX2 (Homo sapiens, UniProt O14965).
T2 construct: 20 μL of AuroraA-TPX2 KD GST for a final volume of about 41 μL; GST
T2 sequence (O14965 133-383 limits assumed): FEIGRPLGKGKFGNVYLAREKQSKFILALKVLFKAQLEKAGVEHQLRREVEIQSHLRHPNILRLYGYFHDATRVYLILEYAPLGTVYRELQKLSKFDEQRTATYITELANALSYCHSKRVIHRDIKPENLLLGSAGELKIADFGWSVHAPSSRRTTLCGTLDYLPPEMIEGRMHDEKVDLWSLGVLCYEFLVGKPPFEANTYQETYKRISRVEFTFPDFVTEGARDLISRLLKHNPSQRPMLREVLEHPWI
T2 sequence (Q9ULW0 1-43 partner limits assumed): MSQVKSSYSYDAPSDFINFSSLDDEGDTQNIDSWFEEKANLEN
The experiment in a line: AuroraA-TPX2 Homogeneous Time Resolved Fluorescent (HTRF) kinase assay. The class given is biochemical. To be noted: average; read-out: AurA_IC50_IP (uM Avg). An outline of the steps:
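HTRF read-out (Eu 615 nm to APC 655 nm) of phosphorylated biotin-PLK, detected with 0.02 nM europium anti-phosphoPLK antibody and 0.0005 mg/mL SA-APC after overnight equilibration.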

T1 sequence (Q96GD4 whole entry): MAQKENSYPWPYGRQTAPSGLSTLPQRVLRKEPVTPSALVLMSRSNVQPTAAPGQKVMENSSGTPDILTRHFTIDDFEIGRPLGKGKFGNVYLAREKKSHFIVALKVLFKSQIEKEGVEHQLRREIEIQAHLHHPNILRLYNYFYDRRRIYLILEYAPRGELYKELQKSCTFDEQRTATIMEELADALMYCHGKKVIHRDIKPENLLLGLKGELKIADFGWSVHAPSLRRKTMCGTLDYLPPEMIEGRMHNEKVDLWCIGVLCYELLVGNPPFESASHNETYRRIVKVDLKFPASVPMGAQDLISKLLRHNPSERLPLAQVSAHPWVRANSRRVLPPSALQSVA

`COc1cnc2c(Oc3ccc(Nc4nnc(-c5ccccc5)c5c4CCC5)cc3)ccnc2c1` [compound 367, N-(4-(7-methoxy-1,5-naphthyridin-4-yloxy)phenyl)-4-phenyl-6,7-dihydro-5H-cyclopenta[d]pyridazin-1-amine]: the IC50 was found to be 0.057 µM at AuroraB and 0.028 µM at AuroraA-TPX2.
In the case of `COc1ccc2c(Oc3ccc(Nc4nnc(-c5ccccc5)c5c4CCC5)cc3)ccnc2c1` [compound 368, N-(4-(7-methoxyquinolin-4-yloxy)phenyl)-4-phenyl-6,7-dihydro-5H-cyclopenta[d]pyridazin-1-amine], the figures for the IC50 on AuroraB and at AuroraA-TPX2 were 0.063 µM and 0.04 µM, respectively.
Take `c1ccc(-c2nnc(Nc3ccc(Oc4ccnc5ccnn45)cc3)c3ccccc23)cc1` [compound 370, 4-phenyl-N-(4-(pyrazolo[1,5-a]pyrimidin-7-yloxy)phenyl)phthalazin-1-amine]: the figures for the IC50 on AuroraB and on AuroraA-TPX2 were 0.594 µM and 0.505 µM, respectively.
Consider `COc1cnc2c(Oc3ccc(Nc4nnc(-c5ccc(Cl)cc5)c5c4CCC5)cc3)ccnc2c1` [compound 411], for which the IC50 on AuroraB and at AuroraA-TPX2 was above 25 µM each time.
In the case of `COc1ccc2c(Oc3ccc(Nc4nnc(-c5ccc(Cl)cc5)c5c4CCC5)cc3)ccnc2c1` [compound 412], the IC50 on AuroraB and at AuroraA-TPX2 was above 25 µM each time.
In the case of `COc1cnc2c(Sc3ccc(Nc4nnc(-c5ccccc5)c5ccccc45)cn3)ccnc2c1` [compound 413], the IC50 at AuroraB came to 0.031 µM; on AuroraA-TPX2, 0.09 µM.
For `Oc1cnc2c(Sc3ccc(Nc4nnc(-c5ccccc5)c5ccccc45)cc3)ccnc2c1` [compound 415], in that order: 0.012 µM and 0.043 µM.
With `Cc1ccc(-c2nnc(Nc3ccc(Oc4ccnc5cccnc45)cc3)c3ccccc23)cc1N` [compound 416], the IC50 on AuroraB is 0.003 µM; at AuroraA-TPX2 it was 0.098 µM.
For the molecule `c1ccc(-c2nnc(Nc3ccc(Oc4ccnc5cc(-c6cn[nH]c6)ccc45)cc3)c3ccccc23)cc1` [compound 417], the figures for the IC50 at AuroraB and at AuroraA-TPX2 were 0.002 µM and 0.009 µM, respectively.
Turning to `COc1cc2ncnc(Sc3ccc(Nc4nnc(-c5ccc(Cl)cc5)c5ccccc45)cc3)c2cc1OC` [compound 418], the IC50 on AuroraB came to 0.012 µM; at AuroraA-TPX2 it was 0.028 µM.
For `COc1ccc2nccc(Sc3ccc(Nc4nnc(-c5cccc(C)n5)c5ccccc45)cc3)c2n1` [compound 419], in that order: 0.026 µM and 0.309 µM.
`COc1cnc2c(Sc3ccc(Nc4nnc(-c5cccc(C)n5)c5ccccc45)cc3)ccnc2c1` [compound 420]: the IC50 was 0.015 µM on AuroraB and 0.072 µM at AuroraA-TPX2.
In the case of `Cc1cccc(-c2nnc(Nc3ccc(Sc4ccnc5cccnc45)cc3)c3ccccc23)n1` [compound 421], the IC50 on AuroraB was 0.008 µM; on AuroraA-TPX2 it was 0.142 µM.
For `COc1cc2c(Oc3ccc(Nc4nnc(-c5ccccc5)c5ccccc45)cc3)ccnc2cc1O` [compound 422], in that order: 0.013 µM and 0.029 µM.
As to `Clc1ccc(-c2nnc(Nc3ccc(Oc4ccnc5ccncc45)cc3)c3ccccc23)cc1` [compound 423], the IC50 on AuroraB was found to be 0.003 µM; on AuroraA-TPX2 it was 0.047 µM.
For `c1ccc2c(-c3ccc4c(c3)OCO4)nnc(Nc3ccc(Oc4ccnc5ccncc45)cc3)c2c1` [compound 424], in that order: 0.004 µM and 0.055 µM.
Regarding `c1ccc(-c2nnc(Nc3ccc(Sc4ccnc5ccncc45)cc3)c3ccccc23)cc1` [compound 425], the IC50 was 0.003 µM on AuroraB and 0.171 µM on AuroraA-TPX2.
With `Clc1ccc(-c2nnc(Nc3ccc(Sc4ccnc5ccncc45)cc3)c3ccccc23)cc1` [compound 426], the IC50 came out at 0.008 µM at AuroraB and 0.1 µM at AuroraA-TPX2.
For `c1ccc2c(-c3ccc4c(c3)OCO4)nnc(Nc3ccc(Sc4ccnc5ccncc45)cc3)c2c1` [compound 427], in that order: 0.007 µM and 0.055 µM.
With `Cc1csc(-c2nnc(Nc3ccc(Sc4ccnc5ccncc45)cc3)c3ccccc23)c1` [compound 428], the IC50 came out at 0.013 µM at AuroraB and 0.032 µM at AuroraA-TPX2.
As to `Cc1csc(-c2nnc(Nc3ccc(Oc4ccnc5ccncc45)cc3)c3ccccc23)c1` [compound 429], the IC50 came to 0.012 µM on AuroraB and 0.046 µM on AuroraA-TPX2.
Consider `Clc1ccc(-c2nnc(Nc3ccc(Sc4ccnc5ccncc45)cc3)c3ccccc23)nc1` [compound 430], for which the IC50 turned out to be 0.007 µM on AuroraB and 0.084 µM on AuroraA-TPX2.
As to `COCCOc1ccc2c(Sc3ccc(Nc4nnc(-c5ccc(Cl)cc5)c5ccccc45)cc3)ccnc2c1` [compound 431], the IC50 at AuroraB was found to be 0.018 µM; at AuroraA-TPX2 it was 0.012 µM.
For `Cc1ccc(-c2nnc(Nc3ccc(Oc4ccnc5ccncc45)cc3)c3ccccc23)nc1` [compound 432], in that order: 0.012 µM and 0.122 µM.
As for `Cc1ccc(-c2nnc(Nc3ccc(Sc4ccnc5ccncc45)cc3)c3ccccc23)nc1` [compound 433], the IC50 on AuroraB was 0.004 µM; at AuroraA-TPX2, 0.056 µM.
For `COCCOc1ccc2nccc(Sc3ccc(Nc4nnc(-c5ccc(Cl)cc5)c5ccccc45)cc3)c2c1` [compound 434], in that order: 0.109 µM and 0.109 µM.
Consider `COc1cc(OC)c2c(Oc3ccc(Nc4nnc(-c5ccc(Cl)cc5)c5ccccc45)cc3)ccnc2c1` [compound 435], for which the IC50 was found to be 0.121 µM on AuroraB and 0.038 µM on AuroraA-TPX2.
For `COc1cc(OC)c2c(Sc3ccc(Nc4nnc(-c5ccc(Cl)cc5)c5ccccc45)cc3)ccnc2c1` [compound 436], in that order: 0.675 µM and 0.401 µM.
For `COc1cc(F)cc2nccc(Oc3ccc(Nc4nnc(-c5ccc(Cl)cc5)c5ccccc45)cc3)c12` [compound 437], in that order: 0.035 µM and 0.042 µM.
With `COc1cc(F)cc2nccc(Sc3ccc(Nc4nnc(-c5ccc(Cl)cc5)c5ccccc45)cc3)c12` [compound 438], the IC50 at AuroraB amounted to 0.051 µM; on AuroraA-TPX2 it was 0.112 µM.
For `COc1cc(OC)c2c(Sc3ccc(Nc4nnc(-c5cc(C)cs5)c5ccccc45)cc3)ccnc2c1` [compound 439], in that order: 3.2 µM and 1.66 µM.
As for `COc1cc(F)cc2nccc(Sc3ccc(Nc4nnc(-c5cc(C)cs5)c5ccccc45)cc3)c12` [compound 440], the values for the IC50 at AuroraB and on AuroraA-TPX2 were 0.596 µM and 0.585 µM, respectively.
For `COc1cc(OC)c2c(Oc3ccc(Nc4nnc(-c5cc(C)cs5)c5ccccc45)cc3)ccnc2c1` [compound 441], in that order: 0.135 µM and 0.456 µM.
On to `COc1cc(F)cc2nccc(Oc3ccc(Nc4nnc(-c5cc(C)cs5)c5ccccc45)cc3)c12` [compound 442], for which the IC50 on AuroraB was 0.017 µM; at AuroraA-TPX2, 0.157 µM.
For `c1cnc2c(Sc3ccc(Nc4nnc(-c5ccc6c(c5)OCO6)c5ccccc45)cc3)ccnc2c1` [compound 443], in that order: 0.002 µM and 0.012 µM.
For `FC1(F)Oc2ccc(-c3nnc(Nc4ccc(Sc5ccnc6cccnc56)cc4)c4ccccc34)cc2O1` [compound 444], in that order: 0.022 µM and 0.128 µM.
On to `c1cnc2c(Sc3ccc(Nc4nnc(-c5ccc6c(c5)CCO6)c5ccccc45)cc3)ccnc2c1` [compound 445], for which the IC50 at AuroraB was determined as 0.013 µM; at AuroraA-TPX2, 0.03 µM.
Turning to `c1cnc2c(Sc3ccc(Nc4nnc(-c5ccc6occc6c5)c5ccccc45)cc3)ccnc2c1` [compound 446], the IC50 on AuroraB worked out at 0.011 µM; on AuroraA-TPX2 it was 0.035 µM.
With `Cc1csc(-c2nnc(Nc3ccc(Oc4ccnc5cccnc45)cc3)c3ccccc23)c1` [compound 447], the values for the IC50 on AuroraB and on AuroraA-TPX2 were 0.013 µM and 0.027 µM, respectively.
With `Clc1ccc(-c2nnc(Nc3ccc(Oc4ccnc5cccnc45)cc3)c3ccccc23)cc1` [compound 448], the IC50 was determined as 0.011 µM on AuroraB and 0.039 µM on AuroraA-TPX2.
Regarding `COc1cnc2c(Oc3ccc(Nc4nnc(-c5ccc(C)c(O)c5)c5ccccc45)cc3)ccnc2c1` [compound 449], the IC50 stood at 0.006 µM at AuroraB and 0.026 µM at AuroraA-TPX2.
For `COCCOc1cc(-c2nnc(Nc3ccc(Sc4ccnc5cc(OC)cnc45)cc3)c3ccccc23)ccc1Cl` [compound 450], in that order: 0.054 µM and 0.101 µM.
For `COc1cnc2c(Sc3ccc(Nc4nnc(-c5ccc(C)c(O)c5)c5ccccc45)cc3)ccnc2c1` [compound 451], in that order: 0.033 µM and 0.078 µM.
Consider `Oc1cc(-c2nnc(Nc3ccc(Sc4ccnc5cccnc45)cc3)c3ccccc23)ccc1Cl` [compound 452], for which the results for the IC50 at AuroraB and at AuroraA-TPX2 were 0.003 µM and 0.058 µM, respectively.
Turning to `COc1cnc2c(Sc3ccc(Nc4nnc(-c5ccc6cn[nH]c6c5)c5ccccc45)cc3)ccnc2c1` [compound 453], the IC50 came to 0.032 µM at AuroraB and 0.028 µM on AuroraA-TPX2.
As for `COc1cnc2c(Oc3c(F)cc(Nc4nnc(-c5ccc(Cl)cc5)c5ccccc45)cc3F)ccnc2c1` [compound 454], the IC50 was 0.01 µM on AuroraB and 0.05 µM on AuroraA-TPX2.
As to `Fc1ccc2c(Oc3ccc(Nc4nnc(-c5ccc(Cl)cc5)c5ccccc45)cc3)ccnc2c1` [compound 455], the IC50 at AuroraB was 0.013 µM; at AuroraA-TPX2 it was above 125 µM.
